Data published in ChEMBL document CHEMBL1201862, “PubChem BioAssay data set” (2004).
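1) Cells in 96-well plates. 2) Compound, 48 h, 5 concentrations. 3) Linear interpolation between surrounding doses. 4) Unreached endpoint = highest concentration. GI50: concentration for 50% inhibition of growth.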 Activity calls are given as the source filed them. Rule as the data show it: active = GI50 up to about 1.1 µM and inactive = higher.

Assays:
Experiment in all cases: NCI anticancer screen, dose series, 48 h
Malme-3M = tested on: Malme-3M
SR = tested on: SR
HL-60 = tested on: HL-60
NCI-H23 = tested on: NCI-H23
PC-3 = tested on: PC-3
M14 = tested on: M14
U-251 = tested on: U-251
BT-549 = tested on: BT-549
SK-MEL-5 = tested on: SK-MEL-5
MDA-MB-231 = tested on: MDA-MB-231
K562 = tested on: K562
HT-29 = tested on: HT-29
NCI-H460 = tested on: NCI-H460
786-0 = tested on: 786-0
NCI/ADR-RES = tested on: NCI/ADR-RES
SW-620 = tested on: SW-620
ACHN = tested on: ACHN
NCI-H226 = tested on: NCI-H226
OVCAR-4 = tested on: OVCAR-4
SN12C = tested on: SN12C
UO-31 = tested on: UO-31
RXF 393 = tested on: RXF 393
EKVX = tested on: EKVX
HCT-15 = tested on: HCT-15
SF-268 = tested on: SF-268
A549 = tested on: A549
SNB-75 = tested on: SNB-75
SK-MEL-28 = tested on: SK-MEL-28
HCT-116 = tested on: HCT-116
A498 = tested on: A498
CCRF-CEM = tested on: CCRF-CEM
TK-10 = tested on: TK-10
LOX IMVI = tested on: LOX IMVI
UACC-257 = tested on: UACC-257
HCC 2998 = tested on: HCC 2998
DU-145 = tested on: DU-145
MDA-MB-435 = tested on: MDA-MB-435
Hs-578T = tested on: Hs-578T
SF-295 = tested on: SF-295
HOP-92 = tested on: HOP-92
RPMI-8226 = tested on: RPMI-8226
SK-MEL-2 = tested on: SK-MEL-2
COLO 205 = tested on: COLO 205
SNB-19 = tested on: SNB-19
OVCAR-8 = tested on: OVCAR-8
HOP-62 = tested on: HOP-62
MDA-N = tested on: MDA-N
SK-OV-3 = tested on: SK-OV-3
OVCAR-5 = tested on: OVCAR-5
CAKI-1 = tested on: CAKI-1
T47D = tested on: T47D
OVCAR-3 = tested on: OVCAR-3
NCI-H522 = tested on: NCI-H522
SF-539 = tested on: SF-539
KM12 = tested on: KM12
MOLT-4 = tested on: MOLT-4
MCF7 = tested on: MCF7
UACC-62 = tested on: UACC-62
IGROV-1 = tested on: IGROV-1

Q: How did the GI50 (Malme-3M) turn out when `O=C(/C=C/c1ccco1)c1cccc(C(=O)/C=C/c2ccco2)n1` was run?
A: 25700 nM (inactive)

Q: What about the GI50 (SR) of the same compound?
A: 1370 nM (inactive)

Q: And the GI50 (HL-60)?
A: 40.9 nM (active)

Q: What about the GI50 (NCI-H23) of the same compound?
A: 11700 nM (inactive)

Q: And the GI50 (PC-3)?
A: 13200 nM (inactive)

Q: What about the GI50 (M14) of the same compound?
A: 27200 nM (inactive)

Q: What about the GI50 (U-251) of the same compound?
A: 5220 nM (inactive)

Q: And the GI50 (BT-549)?
A: 13000 nM (inactive)

Q: And the GI50 (SK-MEL-5)?
A: 48600 nM (inactive)

Q: And the GI50 (MDA-MB-231)?
A: 40100 nM (inactive)

Q: And the GI50 (K562)?
A: 2910 nM (inactive)

Q: What about the GI50 (HT-29) of the same compound?
A: 5070 nM (inactive)

Q: What about the GI50 (NCI-H460) of the same compound?
A: 42400 nM (inactive)

Q: What about the GI50 (786-0) of the same compound?
A: 3400 nM (inactive)

Q: What about the GI50 (NCI/ADR-RES) of the same compound?
A: 24200 nM (inactive)

Q: And the GI50 (SW-620)?
A: 3200 nM (inactive)

Q: And the GI50 (ACHN)?
A: 21900 nM (inactive)

Q: And the GI50 (NCI-H226)?
A: > 100000 nM (inactive)

Q: And the GI50 (OVCAR-4)?
A: > 73500 nM (inactive)

Q: And the GI50 (SN12C)?
A: 12600 nM (inactive)

Q: What about the GI50 (UO-31) of the same compound?
A: 6430 nM (inactive)

Q: And the GI50 (RXF 393)?
A: 25500 nM (inactive)

Q: What about the GI50 (EKVX) of the same compound?
A: 57300 nM (inactive)

Q: What about the GI50 (HCT-15) of the same compound?
A: 4920 nM

Q: What about the GI50 (SF-268) of the same compound?
A: 5240 nM (inactive)

Q: And the GI50 (A549)?
A: 27100 nM (inactive)

Q: And the GI50 (SNB-75)?
A: 45500 nM (inactive)

Q: What about the GI50 (SK-MEL-28) of the same compound?
A: 15400 nM (inactive)

Q: What about the GI50 (HCT-116) of the same compound?
A: 2780 nM (inactive)

Q: What about the GI50 (A498) of the same compound?
A: > 72100 nM (inactive)

Q: What about the GI50 (CCRF-CEM) of the same compound?
A: 710 nM (active)

Q: And the GI50 (TK-10)?
A: 41200 nM (inactive)

Q: What about the GI50 (LOX IMVI) of the same compound?
A: 1780 nM (inactive)

Q: What about the GI50 (UACC-257) of the same compound?
A: 60700 nM (inactive)

Q: What about the GI50 (HCC 2998) of the same compound?
A: > 75900 nM (inactive)

Q: And the GI50 (DU-145)?
A: 24900 nM (inactive)

Q: And the GI50 (MDA-MB-435)?
A: 48500 nM (inactive)

Q: What about the GI50 (Hs-578T) of the same compound?
A: 4400 nM (inactive)

Q: What about the GI50 (SF-295) of the same compound?
A: 40100 nM (inactive)

Q: What about the GI50 (HOP-92) of the same compound?
A: 32900 nM (inactive)

Q: What about the GI50 (RPMI-8226) of the same compound?
A: 1870 nM (inactive)

Q: What about the GI50 (SK-MEL-2) of the same compound?
A: 25500 nM (inactive)

Q: What about the GI50 (COLO 205) of the same compound?
A: 23600 nM (inactive)

Q: What about the GI50 (SNB-19) of the same compound?
A: 8410 nM (inactive)

Q: What about the GI50 (OVCAR-8) of the same compound?
A: 2690 nM (inactive)

Q: What about the GI50 (HOP-62) of the same compound?
A: 17100 nM (inactive)

Q: And the GI50 (MDA-N)?
A: 10700 nM (inactive)

Q: What about the GI50 (SK-OV-3) of the same compound?
A: 47800 nM (inactive)

Q: What about the GI50 (OVCAR-5) of the same compound?
A: 26100 nM (inactive)

Q: What about the GI50 (CAKI-1) of the same compound?
A: 25000 nM (inactive)

Q: What about the GI50 (T47D) of the same compound?
A: 6170 nM (inactive)

Q: And the GI50 (OVCAR-3)?
A: 19400 nM (inactive)

Q: What about the GI50 (NCI-H522) of the same compound?
A: 3900 nM (inactive)

Q: And the GI50 (SF-539)?
A: 5010 nM (inactive)

Q: What about the GI50 (KM12) of the same compound?
A: 3980 nM (inactive)

Q: What about the GI50 (MOLT-4) of the same compound?
A: 2190 nM (inactive)

Q: What about the GI50 (MCF7) of the same compound?
A: 662 nM (active)

Q: What about the GI50 (UACC-62) of the same compound?
A: 27800 nM (inactive)

Q: And the GI50 (IGROV-1)?
A: 6820 nM (inactive)

Q: Which results are given for `COc1cc2c3c(c4ccc(O)cc4c2cc1OC)[C@@H](O)[C@@H]1CCCN1C3`?
A: GI50 (Malme-3M): < 1 nM (active); GI50 (SR): < 1 nM (active); GI50 (HL-60): 1.16 nM (active); GI50 (NCI-H23): 1.2 nM (active); GI50 (PC-3): 1.9 nM (active); GI50 (M14): < 1 nM (active); GI50 (U-251): < 1 nM (active); GI50 (BT-549): 1.68 nM (active); GI50 (SK-MEL-5): < 1 nM (active); GI50 (MDA-MB-231): < 1 nM (active); GI50 (K562): 2.03 nM (active); GI50 (HT-29): 2.33 nM (active); GI50 (NCI-H460): < 1 nM (active); GI50 (786-0): < 1 nM (active); GI50 (NCI/ADR-RES): 1.66 nM (active); GI50 (SW-620): < 1 nM (active); GI50 (ACHN): < 1 nM (active); GI50 (NCI-H226): < 1 nM (active); GI50 (OVCAR-4): < 1 nM (active); GI50 (SN12C): < 1 nM (active); GI50 (UO-31): < 1 nM (active); GI50 (RXF 393): 1.23 nM (active); GI50 (EKVX): < 1 nM (active); GI50 (HCT-15): < 1 nM; GI50 (SF-268): < 1 nM (active); GI50 (A549): < 1 nM (active); GI50 (SNB-75): < 1 nM (active); GI50 (SK-MEL-28): < 1 nM (active); GI50 (HCT-116): < 1 nM (active); GI50 (A498): < 1 nM (active); GI50 (CCRF-CEM): < 1 nM (active); GI50 (TK-10): 1.06 nM (active); GI50 (LOX IMVI): < 1 nM (active); GI50 (UACC-257): 1.21 nM (active); GI50 (HCC 2998): < 1 nM (active); GI50 (DU-145): < 1 nM (active); GI50 (MDA-MB-435): < 1 nM (active); GI50 (Hs-578T): < 1 nM (active); GI50 (SF-295): < 1 nM (active); GI50 (HOP-92): 1.1 nM (active); GI50 (RPMI-8226): < 1 nM (active); GI50 (SK-MEL-2): < 1 nM (active); GI50 (COLO 205): 17.8 nM (active); GI50 (SNB-19): < 1 nM (active); GI50 (OVCAR-8): < 1 nM (active); GI50 (HOP-62): < 1 nM (active); GI50 (MDA-N): < 1 nM (active); GI50 (SK-OV-3): 1.05 nM (active); GI50 (OVCAR-5): < 1 nM (active); GI50 (CAKI-1): < 1 nM (active); GI50 (T47D): < 1 nM (active); GI50 (OVCAR-3): 1.22 nM (active); GI50 (NCI-H522): < 1 nM (active); GI50 (SF-539): < 1 nM (active); GI50 (KM12): < 1 nM (active); GI50 (MOLT-4): < 1 nM (active); GI50 (MCF7): < 1 nM (active); GI50 (UACC-62): 1.05 nM (active); GI50 (IGROV-1): < 1 nM (active)
